The text below walks through data of patent publication US20240391923A1, “METHIONINE ADENOSYLTRANSFERASE 2A INHIBITOR FOR TREATING MTAP DELETION-TYPE CANCER” (SUZHOU GENHOUSE BIO CO., LTD., priority 2022, published 2024).

Where two headings read alike, the source gives them in different places.

The nature of data set [1]: Metabolic stability test in hepatocytes, mouse. The data set is classed as in vitro ADME. Conditions: hepatocytes (suspension), Table 5: metabolic stability in hepatocytes, up to 90 min, read-out: Metabolic half-life in mouse liver microsome (T½, min). On the procedure:
(§1) This experimental example was used to test the metabolic stability of the compounds in hepatocytes.
(§2) A suspension of hepatocytes was prepared at 0.5×10^6/mL with a pre-heated medium, then 198 μL of the pre-heated cell suspension was added to a 96-well plate. To each well of the 96-well plate, 2 μL of the test compound was added so that the final concentration was 1 μM, and 2 replicate wells were set. For the T=0 min sample, the compound was mixed well with the cells for 1 min, then […] was immediately added to 125 μL of a stop solution (an acetonitrile solution containing 200 ng/mL tolbutamide and 200 ng/mL labetalol) under an ice bath and mixed well. At the same time, all the plates were placed in an incubator at 37° C. with 5% CO2, with the shaker set at 600 rpm. The sample was mixed well at 15, 30, 60, and 90 min of incubation, respectively, and 25 μL of the sample was added to 125 μL of a stop solution (an acetonitrile solution containing 200 ng/mL tolbutamide and 200 ng/mL labetalol) under an ice bath, mixed well, and shaken at 500 rpm for 10 min. Subsequently, the plate was centrifuged for 20 min at 3220×g at 4° C. After the centrifugation was completed, 80 μL of the supernatant from each well was transferred to another 96-well plate containing 240 μL of ultrapure water. Subsequently, analysis was carried out using LC-MS/MS, and intrinsic clearance (CLint) and half-life (T½) were calculated.

The test system of a further data set is DOHH-2 cell strain. Nature of the data set: Tumor cell proliferation inhibition assay (CellTiter-Glo), DOHH-2. It counts as cell-based. Conditions: Homo sapiens, 120 h, DOHH-2 cells, 5-day treatment. Summed up:
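Read-out: CellTiter-Glo ATP luminescence after 5-day compound exposure at 37° C./5% CO2. Dosing began 24 h post-seeding, 10 μM top, 1:3 dilutions, 10 points; DMSO-treated cells as reference.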
For orientation: Cellular ATP, detected with luciferase, serves as a proxy for viable cell number.

Data set [2] is described as follows: Metabolic stability test in hepatocytes, human. It counts as in vitro ADME. Conditions: hepatocytes (suspension), Table 5: metabolic stability in hepatocytes, up to 90 min, read-out: Metabolic half-life in human liver microsome (T½, min). How it is done:
as §1
as §2, with “After the centrifugation was completed, 80 μL of the supernatant from each well was transferred to another 96-well plate containing 240 μL of ultrapure water.” left out

In data set [3] the test system is Human pancreatic cancer cells KP-4. In words: Mouse xenograft tumor pharmacodynamic model, KP-4. It counts as in vivo. Conditions: KP-4 xenograft, 29 days of administration. How it is done: In this example, the in vivo efficacy of the compound in a mouse xenograft tumor model after intragastric (PO) administration was tested.
Human pancreatic cancer cells KP-4 were cultured in monolayer in vitro under the condition of 1640 medium containing […] and […] and streptomycin, and the culture was carried out at 37° C. with 5% CO2. The cells were digested with trypsin three times a week for passaging. When the saturation degree of the cells was 80-90%, the cells were collected, counted and inoculated. 0.1 mL (5×10^6 cells) of KP-4 cells were subcutaneously inoculated on the right back of each mouse. On day 34 after inoculation of the cells, the mean tumor volume reached 154 mm^3. The mice were randomly grouped for administration and intragastrically dosed once daily. Changes in body weight and tumor volume were recorded. After 29 days of administration, the experiment was ended. Tumor volume changes and mouse body weight changes were counted and analyzed. AG270 (CAS: 2201056-66-6) was the positive control compound.

[4] abbreviates: IC50 score, read-out: Tumor cell 5-day relative growth inhibition (DOHH-2) (nM), score.
[5] abbreviates: IC50 value, read-out: Tumor cell 5-day relative growth inhibition (DOHH-2).

In general, half-life refers to the time needed for the level to fall by half in the phase considered. Turning to `Cc1ncccc1-n1c(=O)c2nn(C)cc2c2ccc(C(F)(F)F)nc21` (single isomer, unassigned) [Compound B180], the half-life at 1 μM in data set [1] was 47.1 min. Besides, the IC50 with DOHH-2 cell strain (setting [4]) is less than 500 nM; with DOHH-2 cell strain (setting [5]), 134 nM.
In the same order, the values of `Cn1cc2c(n1)c(=O)n(-c1cccnc1)c1cc(Cl)ccc21` [Compound B12] are 68.8 min, 500 to 2000 nM and 1110 nM.
Regarding `Cn1cc2c(n1)c(=O)n(-c1cccc3[nH]ncc13)c1cc(Cl)ccc21` [Compound B60], the IC50 in the data set on DOHH-2 cell strain (setting [4]) was less than 500 nM; in the data set on DOHH-2 cell strain (setting [5]) it was 39.1 nM.
In the case of `Cn1cc2c(n1)c(=O)n(-c1cccc(O)c1)c1nc(C(F)(F)F)ccc21` [Compound B148], in data set [1], the half-life at 1 μM amounted to 14.9 min. For the same compound, the IC50 in the data set with DOHH-2 cell strain (setting [4]) was less than 500 nM; in the data set on DOHH-2 cell strain (setting [5]) it was 443 nM.
As to `Cn1cc2c(n1)c(=O)n(-c1cccc3[nH]ncc13)c1nc(C(F)(F)F)ccc21` [Compound B181], the half-life at 1 μM was 91.1 min in data set [1] and more than 217 min in data set [2]. Besides, the IC50 in the data set with DOHH-2 cell strain (setting [4]) is 500 to 2000 nM; in the data set with DOHH-2 cell strain (setting [5]) it was 1040 nM.
On to `Cn1cc2c(n1)c(=O)n(-c1cccc3[nH]ncc13)c1cc(Cl)c(F)cc21` [Compound B257], for which the “Tumor growth inhibition percentage (TGI)” value is listed as “once a day TGI = 66.25%” in data set [3] (PO 0.3 mg/kg once a day), “once a day TGI = 90.06%” in data set [3] (PO 1 mg/kg once a day) and “once a day TGI = 97.08%” in data set [3] (PO 3 mg/kg once a day).
Consider `Cn1cc2c(n1)c(=O)n(-c1cccnc1C1CC1)c1cc(Cl)c(F)cc21` [Compound B340], for which the half-life at 1 μM in data set [1] is 124 min; in data set [2], more than 217 min.
